Test results: patent publication US12161647B2, “Treating hearing loss” (Massachusetts Eye and Ear Infirmary, priority 2012, dated 2024)

Experiments:
[1] = test system: organ of Corti explants from Pou4f3-Cre; Mos-iCsp3 double transgenic mice; experiment: Organ of Corti explants after dimerizer-induced hair cell ablation; assay type: cell-based, mouse
Excerpt: For the experiments using inner ear spheres, C57BL/6 (Jackson Labs) or Math1-nGFP reporter mouse (19) (a gift from Jane Johnson, University of Texas) of both sexes were used. To create organ of Corti explants with ablated hair cells, Mos-iCsp3 mice (20) were crossed with Pou4f3-Cre mice (6) (a gift from Douglas Vetter, Tufts University). For all in vivo experiments, we used 4-week-old Cre reporter line, mT/mG (Jackson Labs), crossed to a Sox2-CreER mouse (47) (a gift from Konrad Hochedlinger, Mass General Hospital). After genotyping, double transgenic animals were used for lineage tracing. We used young adult wild-type littermates of the mT/mG; Sox2-CreER mice to prevent strain effects in the response to noise, which are known to vary depending on background (22, 48). Mice were genotyped by PCR. […]
For explants, the organs of Corti were fixed for 15 min with 4% paraformaldehyde in PBS. […] Primary antibodies were detected with secondary antibodies conjugated with Alexa 488 and 647 (Molecular Probes). The samples were stained with rhodamine phalloidin (Invitrogen) for 15 min and viewed by confocal fluorescence microscopy (TCS SP5, Leica).
Cell counting for spheres was performed with MetaMorph software. The cell number was determined from DAPI- or Hoechst-positive nuclei. […] For explants, inner hair cells, outer hair cells, and supporting cells in the outer hair cell region were counted on cochlear whole mounts. […] High-power images of the full-length cochlea or cochlear explant cultures were assembled and analyzed in PhotoShop CS4 (Adobe). ImageJ software (NIH) was used to measure the total length of cochlear whole mounts and the length of individual counted segments. The total number of inner hair cells, outer hair cells, and supporting cells in the outer hair cell region was counted in each of four cochlear segments of 1200-1400 μm (apical, mid-apical, mid-basal, and basal). Density (cells per 100 μm) was then calculated for each segment. […] The number of Sox2-lineage-positive cells identified by GFP was counted by the same method. […]

[2] = test system: Atoh1 mRNA; experiment: qRT-PCR of Atoh1 in deafened mature cochlea after round window administration; assay type: in vivo, mouse
Procedure: 4-week-old mice were exposed free-field, awake and unrestrained, in a small reverberant chamber (22). Acoustic trauma was produced by a 2 h exposure to an 8-16 kHz octave band noise presented at 116 dB SPL. The exposure stimulus was generated by a custom white-noise source, filtered (Brickwall Filter with a 60 dB/octave slope), amplified (Crown power amplifier), and delivered (JBL compression driver) through an exponential horn fitted securely to a hole in the top of a reverberant box.
4-week-old mice weighing 12 to 16 g were used. Before surgery, the animals were anesthetized with ketamine (20 mg/kg, i.p.) and xylazine (100 mg/kg, i.p.), and an incision was made posterior to the pinna near the external meatus after local administration of lidocaine (1%). […]
The organs of Corti were dissected in HBSS (Invitrogen) and stored in RNAlater (Ambion) at −80° C. until further use. […] Samples were analyzed in 96 wells in triplicate by qPCR (Applied Biosystems 7900HT), and PCR thermal cycling conditions were as follows: initial denaturation at 95° C. for 2 min, denaturation at 95° C. for 15 s, annealing/extension at 60° C. for 1 min for 45 cycles. […] Relative gene expression was analyzed by using the ΔΔCT method. Gene expression was calculated relative to 18S RNA, and the amount of cDNA applied was adjusted so that the Ct value for 18S RNA was between 8 and 11. […]

C[C@H](NC(=O)[C@@H](O)c1cc(F)cc(F)c1)C(=O)N[C@@H]1C(=O)N(C)c2ccccc2-c2ccccc21 [LY411575, N-2((2S)-2-(3,5-difluorophenyl)-2-hydroxyethanoyl)-N1-((7S)-5-methyl-6-oxo-6,7-dihydro-5H-dibenzo[b,d]azepin-7-yl)-l-alaninamide]
number of inner hair cells ([1]; any group): no significant differences | number of myosin VIIa-positive (hair) cells in the outer hair cell region ([1]; hair cell-ablated explants, cultured 3 d, p<0.05): increased | number of Sox2-positive (supporting) cells ([1]; mid-apex and mid-base of the cochlea, p<0.05): decrease | Atoh1 expression above the level post-noise exposure ([2]; 1 d after LY411575 treatment, round window niche): 2.28 × | Atoh1 expression ([2]; 3 d after treatment, p<0.05): remained elevated
